# Data published in the supplement of paper PMC10307832.
# Key:
# Experiment in all cases: relative viability (nuclei count vs DMSO), 5 days (fraction); higher = more cells survive
# [1] = compound: CC1=C(C(=NN1)C)CC2=C(C3=C(S2)N(C(=O)N(C3=O)C)CC(C)C)C(=O)N4C[C@@H](CO4)O + Cc1nc(NC(=O)N2CCC[C@H]2C(N)=O)sc1-c1ccnc(C(C)(C)C(F)(F)F)c1 [Alpelisib] (partner 2 µM)
# Procedure, shortened: (§1)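 Lung cancer cell lines in 1536-well plates were dosed by pin tool the day after seeding, either with one drug alone or with a fixed anchor-drug dose plus five library-drug doses (not always all listed) in √10 steps. After 5 days, cells were fixed and their nuclei stained in one step (final 0.05% Triton X-100, 1% formaldehyde, 1 ug/ml Hoechst), then counted on 4× images. Relative viability is the nuclei count in treated wells divided by that in vehicle wells. Values are medians of duplicate plates.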
# [2] = compound: Cc1ccccc1C(C(=O)NC1CCCCC1)N(C(=O)Cn1ccnc1C)c1cccc(F)c1 [IDH-C35] + CC(C)C[C@H](NC(=O)[C@H](Cc1ccccc1)NC(=O)c1cnccn1)B(O)O [Bortezomib] (partner 0.002 µM)
# Procedure, shortened: as §1
# [3] = compound: Cc1ccccc1C(C(=O)NC1CCCCC1)N(C(=O)Cn1ccnc1C)c1cccc(F)c1 [IDH-C35] + C[C@]1(O)C[C@@H](c2nc(-c3ccc4ccc(-c5ccccc5)nc4c3)c3c(N)nccn32)C1 [Linsitinib] (partner 1 µM)
# Procedure, shortened: as §1
# [4] = compound: CC1=C(C(=NN1)C)CC2=C(C3=C(S2)N(C(=O)N(C3=O)C)CC(C)C)C(=O)N4C[C@@H](CO4)O + O=C(c1cc(Cc2n[nH]c(=O)c3ccccc23)ccc1F)N1CCN(C(=O)C2CC2)CC1 [Olaparib] (partner 8 µM)
# Procedure, shortened: as §1
cell line,measurement,setting,value
NCI-H1563,relative viability,[1]; first compound 0.0025 µM,1
same,relative viability,[1]; first compound 0.007906 µM,0.847
same,relative viability,[1]; first compound 0.025 µM,0.954
same,relative viability,[1]; first compound 0.07906 µM,0.959
same,relative viability,[1]; first compound 0.25 µM,0.893
same,relative viability,[2]; first compound 0.08 µM,0.854
same,relative viability,[2]; first compound 0.253 µM,0.937
same,relative viability,[2]; first compound 0.8 µM,0.844
same,relative viability,[2]; first compound 2.53 µM,0.909
same,relative viability,[2]; first compound 8 µM,0.757
same,relative viability,[3]; first compound 0.08 µM,1.15
same,relative viability,[3]; first compound 0.253 µM,1.3
same,relative viability,[3]; first compound 0.8 µM,1.15
same,relative viability,[3]; first compound 2.53 µM,1.2
same,relative viability,[3]; first compound 8 µM,1.16
LK-2,relative viability,[1]; first compound 0.0025 µM,1.06
same,relative viability,[1]; first compound 0.007906 µM,1.03
same,relative viability,[1]; first compound 0.025 µM,1.09
same,relative viability,[1]; first compound 0.07906 µM,1.05
same,relative viability,[1]; first compound 0.25 µM,1.08
same,relative viability,[4]; first compound 0.0025 µM,0.743
same,relative viability,[4]; first compound 0.007906 µM,0.608
same,relative viability,[4]; first compound 0.025 µM,0.504
same,relative viability,[4]; first compound 0.07906 µM,0.556
same,relative viability,[4]; first compound 0.25 µM,0.6
same,relative viability,[3]; first compound 0.08 µM,0.679
same,relative viability,[3]; first compound 0.253 µM,0.465
same,relative viability,[3]; first compound 0.8 µM,0.43
same,relative viability,[3]; first compound 2.53 µM,0.746
same,relative viability,[3]; first compound 8 µM,0.619
SW 900,relative viability,[4]; first compound 0.0025 µM,0.805
same,relative viability,[4]; first compound 0.007906 µM,1.09
same,relative viability,[4]; first compound 0.025 µM,0.846
same,relative viability,[4]; first compound 0.07906 µM,1
same,relative viability,[4]; first compound 0.25 µM,0.893
NCI-H1648,relative viability,[4]; first compound 0.0025 µM,0.878
same,relative viability,[4]; first compound 0.007906 µM,0.724
same,relative viability,[4]; first compound 0.025 µM,0.63
same,relative viability,[4]; first compound 0.07906 µM,0.782
same,relative viability,[4]; first compound 0.25 µM,0.887
A549,relative viability,[1]; first compound 0.0025 µM,0.838
same,relative viability,[1]; first compound 0.007906 µM,0.96
same,relative viability,[1]; first compound 0.025 µM,0.744
same,relative viability,[1]; first compound 0.07906 µM,0.758
same,relative viability,[1]; first compound 0.25 µM,0.961
same,relative viability,[4]; first compound 0.0025 µM,0.322
same,relative viability,[4]; first compound 0.007906 µM,0.391
same,relative viability,[4]; first compound 0.025 µM,0.355
same,relative viability,[4]; first compound 0.07906 µM,0.358
same,relative viability,[4]; first compound 0.25 µM,0.4
same,relative viability,[3]; first compound 0.08 µM,0.624
same,relative viability,[3]; first compound 0.253 µM,0.55
same,relative viability,[3]; first compound 0.8 µM,0.504
same,relative viability,[3]; first compound 2.53 µM,0.502
same,relative viability,[3]; first compound 8 µM,0.585
ChaGo-K-1,relative viability,[4]; first compound 0.0025 µM,0.466
same,relative viability,[4]; first compound 0.007906 µM,0.42
same,relative viability,[4]; first compound 0.025 µM,0.414
same,relative viability,[4]; first compound 0.07906 µM,0.404
same,relative viability,[4]; first compound 0.25 µM,0.435
same,relative viability,[2]; first compound 0.08 µM,0.956
same,relative viability,[2]; first compound 0.253 µM,0.942
same,relative viability,[2]; first compound 0.8 µM,1.09
same,relative viability,[2]; first compound 2.53 µM,0.939
same,relative viability,[2]; first compound 8 µM,1.03
NCI-H358,relative viability,[1]; first compound 0.0025 µM,0.893
same,relative viability,[1]; first compound 0.007906 µM,0.906
same,relative viability,[1]; first compound 0.025 µM,0.78
same,relative viability,[1]; first compound 0.07906 µM,0.903
same,relative viability,[1]; first compound 0.25 µM,1.04
same,relative viability,[4]; first compound 0.0025 µM,0.596
same,relative viability,[4]; first compound 0.007906 µM,0.557
same,relative viability,[4]; first compound 0.025 µM,0.625
same,relative viability,[4]; first compound 0.07906 µM,0.605
same,relative viability,[4]; first compound 0.25 µM,0.684
same,relative viability,[3]; first compound 0.08 µM,0.746
same,relative viability,[3]; first compound 0.253 µM,0.719
same,relative viability,[3]; first compound 0.8 µM,0.786
same,relative viability,[3]; first compound 2.53 µM,0.713
same,relative viability,[3]; first compound 8 µM,0.649
NCI-H1944,relative viability,[1]; first compound 0.0025 µM,0.858
same,relative viability,[1]; first compound 0.007906 µM,0.858
same,relative viability,[1]; first compound 0.025 µM,0.921
same,relative viability,[1]; first compound 0.07906 µM,0.847
same,relative viability,[1]; first compound 0.25 µM,0.761
same,relative viability,[4]; first compound 0.0025 µM,0.455
same,relative viability,[4]; first compound 0.007906 µM,0.427
same,relative viability,[4]; first compound 0.025 µM,0.423
same,relative viability,[4]; first compound 0.07906 µM,0.373
same,relative viability,[4]; first compound 0.25 µM,0.423
same,relative viability,[3]; first compound 0.08 µM,1.07
same,relative viability,[3]; first compound 0.253 µM,1.29
same,relative viability,[3]; first compound 0.8 µM,1.27
same,relative viability,[3]; first compound 2.53 µM,1.09
same,relative viability,[3]; first compound 8 µM,1.1
NCI-H2342,relative viability,[4]; first compound 0.0025 µM,0.463
same,relative viability,[4]; first compound 0.007906 µM,0.473
same,relative viability,[4]; first compound 0.025 µM,0.374
same,relative viability,[4]; first compound 0.07906 µM,0.425
same,relative viability,[4]; first compound 0.25 µM,0.403
NCI-H522,relative viability,[4]; first compound 0.0025 µM,0.793
same,relative viability,[4]; first compound 0.007906 µM,0.646
same,relative viability,[4]; first compound 0.025 µM,0.53
same,relative viability,[4]; first compound 0.07906 µM,0.4
same,relative viability,[4]; first compound 0.25 µM,0.348
SK-MES-1,relative viability,[1]; first compound 0.0025 µM,0.964
same,relative viability,[1]; first compound 0.007906 µM,0.997
same,relative viability,[1]; first compound 0.025 µM,1.04
same,relative viability,[1]; first compound 0.07906 µM,0.878
same,relative viability,[1]; first compound 0.25 µM,1.01
same,relative viability,[4]; first compound 0.0025 µM,0.702
same,relative viability,[4]; first compound 0.007906 µM,0.756
same,relative viability,[4]; first compound 0.025 µM,0.691
same,relative viability,[4]; first compound 0.07906 µM,0.82
same,relative viability,[4]; first compound 0.25 µM,0.774
same,relative viability,[3]; first compound 0.08 µM,1.15
same,relative viability,[3]; first compound 0.253 µM,0.986
same,relative viability,[3]; first compound 0.8 µM,1.05
same,relative viability,[3]; first compound 2.53 µM,0.957
same,relative viability,[3]; first compound 8 µM,0.99
NCI-H2170,relative viability,[1]; first compound 0.0025 µM,0.918
same,relative viability,[1]; first compound 0.007906 µM,0.868
same,relative viability,[1]; first compound 0.025 µM,0.705
same,relative viability,[1]; first compound 0.07906 µM,0.819
same,relative viability,[1]; first compound 0.25 µM,0.786
same,relative viability,[4]; first compound 0.0025 µM,0.582
same,relative viability,[4]; first compound 0.007906 µM,0.636
same,relative viability,[4]; first compound 0.025 µM,0.676
same,relative viability,[4]; first compound 0.07906 µM,0.597
same,relative viability,[4]; first compound 0.25 µM,0.666
NCI-H1793,relative viability,[1]; first compound 0.0025 µM,0.724
same,relative viability,[1]; first compound 0.007906 µM,0.826
same,relative viability,[1]; first compound 0.025 µM,0.546
same,relative viability,[1]; first compound 0.07906 µM,0.554
same,relative viability,[1]; first compound 0.25 µM,0.742
same,relative viability,[4]; first compound 0.0025 µM,0.896
same,relative viability,[4]; first compound 0.007906 µM,0.975
same,relative viability,[4]; first compound 0.025 µM,0.829
same,relative viability,[4]; first compound 0.07906 µM,0.768
same,relative viability,[4]; first compound 0.25 µM,0.719
same,relative viability,[3]; first compound 0.08 µM,0.908
same,relative viability,[3]; first compound 0.253 µM,0.808
same,relative viability,[3]; first compound 0.8 µM,0.859
same,relative viability,[3]; first compound 2.53 µM,0.85
same,relative viability,[3]; first compound 8 µM,0.773
